Assay [1] concerns AT-DNA (DNA, duplex) TATATATATATATATATATATATATATATATATATATATA
Put plainly: UV/Vis absorption titration (hypochromism). Conditions: 137 mM NaCl, 2.7 mM KCl, PBS (10 mM phosphate), pH 7.4, room temperature, per base pair, intercalation, data not shown.

For assay [2] the test system is unchanged. Put plainly: UV/Vis absorption titration (302 nm, hypochromism). Conditions: 137 mM NaCl, 2.7 mM KCl, PBS (10 mM phosphate), pH 7.4, room temperature, per base pair, 15 µM 8-MOP, intercalation, before irradiation.

Usually KD stands for the constant that tells how readily two partners part at equilibrium. Read a high KD as weaker binding.

In turn, `COc1c2ccoc2cc2oc(=O)ccc12` registered a KD in assay [1] of 180 µM.
`COc1c2occc2cc2ccc(=O)oc12` gave a dissociation constant (KD) in assay [2] of 1100 µM.

For the origin of these results see publication PMC7696755 (2020).
